Experimental data taken from the supplement of paper PMC10307832.

Columns and labels:
Assay in all cases: relative viability (nuclei count vs DMSO), 5 days (fraction); higher = more cells survive
Motesanib + Bortezomib = compound: CC1(C)CNc2cc(NC(=O)c3cccnc3NCc3ccncc3)ccc21 [Motesanib] + CC(C)C[C@H](NC(=O)[C@H](Cc1ccccc1)NC(=O)c1cnccn1)B(O)O [Bortezomib] (partner 0.002 µM)
Method in brief: (§1)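 Cells from lung cancer lines were seeded into 1536-well plates and, one day later, dosed by pin tool. Treatments were either a single drug or a fixed dose of an anchor drug with five library-drug doses (not always all listed) in √10 steps. After 5 days, nuclei were stained in a one-step fixation (final 0.05% Triton X-100, 1% formaldehyde, 1 ug/ml Hoechst) and counted on 4× images, and relative viability is the treated-to-vehicle nuclei ratio, as the median of duplicate plates.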

Motesanib + Linsitinib = compound: CC1(C)CNc2cc(NC(=O)c3cccnc3NCc3ccncc3)ccc21 [Motesanib] + C[C@]1(O)C[C@@H](c2nc(-c3ccc4ccc(-c5ccccc5)nc4c3)c3c(N)nccn32)C1 [Linsitinib] (partner 1 µM)
Method in brief: as §1

[1] = compound: C[C@@]1(C(=O)Nc2ccc(F)nc2)CCCN1c1nc(Nc2cc(C3CC3)n[nH]2)c2cccn2n1 + CC(=O)c1c(C)c2cnc(Nc3ccc(N4CCNCC4)cn3)nc2n(C2CCCC2)c1=O [Palbociclib] (partner 0.5 µM)
Method in brief: as §1

[2] = compound: C[C@@]1(C(=O)Nc2ccc(F)nc2)CCCN1c1nc(Nc2cc(C3CC3)n[nH]2)c2cccn2n1 + Cc1nc(Nc2ncc(C(=O)Nc3c(C)cccc3Cl)s2)cc(N2CCN(CCO)CC2)n1 [Dasatinib] (partner 0.075 µM)
Method in brief: as §1

Cell Line	relative viability (Motesanib + Bortezomib; first compound 0.01 µM)	relative viability (Motesanib + Bortezomib; first compound 0.03162 µM)	relative viability (Motesanib + Bortezomib; first compound 0.1 µM)	relative viability (Motesanib + Bortezomib; first compound 0.3162 µM)	relative viability (Motesanib + Bortezomib; first compound 1 µM)	relative viability (Motesanib + Linsitinib; first compound 0.01 µM)	relative viability (Motesanib + Linsitinib; first compound 0.03162 µM)	relative viability (Motesanib + Linsitinib; first compound 0.1 µM)	relative viability (Motesanib + Linsitinib; first compound 0.3162 µM)	relative viability (Motesanib + Linsitinib; first compound 1 µM)	relative viability ([1]; first compound 0.04 µM)	relative viability ([1]; first compound 0.1265 µM)	relative viability ([1]; first compound 0.4 µM)	relative viability ([1]; first compound 1.265 µM)	relative viability ([2]; first compound 0.04 µM)	relative viability ([2]; first compound 0.1265 µM)	relative viability ([2]; first compound 0.4 µM)	relative viability ([2]; first compound 1.265 µM)
EKVX	1.1	1.19	1.04	1.14	1.06	0.939	0.98	1.06	1.12	1.07	0.387	0.277	0.279	0.286	0.439	0.4	0.32	0.294
EMC-BAC-2	1.03	1.01	1.02	1.07	1.08	0.828	0.805	0.827	0.817	0.86	0.393	0.333	0.331	0.369	0.242	0.212	0.136	0.167
EPLC-272H	0.858	0.832	0.925	0.601	1	1.23	1.26	1.26	1.24	1.38	0.253	0.308	0.285	0.261	0.275		0.157	0.084
H3255	0.714	0.733	0.637	0.936	0.799	0.949	1.02	0.913	1.06	0.871	0.314	0.326	0.299	0.317	0.36	0.361	0.282	0.235
HARA	1.06	1.19	1.21	1.11	1.11	0.967	0.909	1.02	1.09	1.14	0.238	0.189	0.159	0.218	0.297	0.203	0.188	0.163
HCC-15	0.97	0.968	0.886	1.16	1.07	0.928	0.801	0.922	0.992	0.926	0.667	0.579	0.529	0.598	0.458	0.233	0.271	0.297
HCC-44	0.905	0.877	0.994	0.974	0.885	0.7	0.653	0.694	0.696	0.6	0.846	0.904	0.803	0.885				
HCC-78	0.44	0.375	0.667	0.549	0.385	0.498	0.481	0.541	0.705	0.584	0.446	0.377	0.464	0.363	0.421	0.269	0.256	0.184
HCC-366	1.06	1	1.06	0.997	1.09	0.639	0.589	0.656	0.666	0.79	0.338	0.313	0.28	0.243	0.374	0.141	0.201	0.061
